BigSolDB 2.1

COc1ccc(C(=O)O)cc1
solubility (mole fraction)
Settings | 283.15 K | 288.15 K | 293.15 K | 298.15 K | 303.15 K | 308.15 K | 313.15 K | 318.15 K | 323.15 K | 328.15 K
in 2-butanone | 0.0107 | 0.0128 | 0.0149 | 0.0169 | 0.0198 | 0.023 | 0.0266 | 0.0298 | 0.0343 | 0.0394
in THF | 0.0483 | 0.0518 | 0.0562 | 0.0621 | 0.0671 | 0.0731 | 0.078 | 0.085 | 0.0923 | 0.0991
in acetone | 0.0129 | 0.0153 | 0.0173 | 0.0197 | 0.0224 | 0.026 | 0.0298 | 0.032 | 0.0344 | 0.0368
in cyclohexanone | 0.0187 | 0.0203 | 0.022 | 0.025 | 0.0292 | 0.034 | 0.0397 | 0.0449 | 0.0507 | 0.059
in ethyl formate | 0.00442 | 0.00508 | 0.00606 | 0.00738 | 0.00889 | 0.0114 | 0.0135 | 0.0152 | 0.0178 | 0.0195
in ethylene glycol | 0.0022 | 0.00292 | 0.0038 | 0.0046 | 0.00546 | 0.00649 | 0.00768 | 0.00885 | 0.0105 | 0.0126
in isobutanol | 0.00435 | 0.00548 | 0.00691 | 0.00889 | 0.0116 | 0.0143 | 0.0178 | 0.0206 | 0.025 | 0.0288
in isopropyl acetate | 0.00637 | 0.00732 | 0.00833 | 0.00955 | 0.0116 | 0.0135 | 0.0156 | 0.0179 | 0.021 | 0.0246
in n-butanol | 0.00647 | 0.0077 | 0.00946 | 0.011 | 0.0133 | 0.0158 | 0.0186 | 0.0218 | 0.0255 | 0.0302
in n-butyl acetate | 0.00629 | 0.00719 | 0.00867 | 0.0106 | 0.0118 | 0.0136 | 0.0158 | 0.0178 | 0.021 | 0.0244
in n-pentanol | 0.00696 | 0.00853 | 0.0101 | 0.012 | 0.014 | 0.0169 | 0.0197 | 0.0234 | 0.0272 | 0.0313
in n-propyl acetate | 0.00732 | 0.00802 | 0.0089 | 0.0103 | 0.0118 | 0.0136 | 0.0155 | 0.0182 | 0.0209 | 0.0237
in sec-butanol | 0.00623 | 0.00789 | 0.0101 | 0.0121 | 0.0149 | 0.0182 | 0.0219 | 0.0274 | 0.0317 | 0.0362
in toluene | 0.00062 | 0.00086 | 0.0012 | 0.00152 | 0.00196 | 0.00252 | 0.00301 | 0.00369 | 0.0044 | 0.0054
